experiment: gradient 5% acetonitrile 3 min, to 50% in 2 min, to 85% in 15 min, held 3 min, 100 µL/min; settings: column: Zorbax Extend-C18 2.1 x 50 mm; eluents: water / acetonitrile, 0.1% formic acid
Summary of the method: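 Over 3 months, pure standards in mixtures of ~100 molecules were run by HPLC coupled to a quadrupole time-of-flight mass spectrometer in positive and negative ionization mode. The column was a Zorbax Extend-C18 (2.1 × 50 mm, 1.8 μm) at 100 μL/min, eluted with water and acetonitrile each holding 0.1% formic acid, with 40 μL dead and 900 μL dwell volumes. Retention time was determined from adduct peaks chosen by software and checked manually.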

SMILES	RP-LC retention time [s]
O=C(NCc1ccccc1F)c1cn2cc(Cl)ccc2n1	723
O=C(Cn1ccn2nc(-c3ccc(F)cc3)c(CO)c2c1=O)NCCC1=CCCCC1	900
CC(C)CC(=O)N1CC(c2nc(-c3cccnc3)no2)C2(CCOCC2)C1 (stereo not given)	706
Cc1csc(-c2cc(S(=O)(=O)N3CCOCC3)cn2CC(=O)N2CCCCC2)n1	846
COc1ccc(N(Cc2nnc3n2CCCCC3)C(=O)Nc2cccc(OC)c2)cc1	714
O=c1ccc(-c2ccc(F)cc2)nn1CCc1nc(-c2ccc(Br)cc2)no1	1110
CCN(CC)c1ccc(C(=O)O)cc1NC(=O)c1cccs1	835
CCN1CCCCc2cc(C(=O)NC(C)(C)C)sc21	1080
CCc1nc(-c2csc(S(=O)(=O)N3CCC(C(=O)Nc4ccc(C)cn4)CC3)c2)no1	799
CN(Cc1cccnc1Oc1ccccc1)C(=O)c1cnccn1	691
COc1ccccc1-n1c(SCC(=O)Nc2ncn[nH]2)nc2ccccc2c1=O	642
Cc1noc2ncn(CC(=O)NCc3ccccc3F)c(=O)c12	705
CSc1cccc(NC(=O)N2CCC(c3nc(C(=O)N(C)C)c(C)o3)CC2)c1	732
Cc1nc(-c2csc(S(=O)(=O)N3CCC(C(=O)N4CCCCC4)CC3)c2)no1	818
COc1ccc(CNCCSc2nnnn2C)c(OC)c1	598
CCOc1ccc(-c2[nH]ncc2CN2CCn3c(nn(C)c3=O)C2)cc1	618
CCSc1nnc(NC(=O)CNC(=O)c2ccc(=O)[nH]c2)s1	571
COCCn1nc2n(c1=O)CCN(C(=O)C1(c3ccccc3)CCCC1)CC2	730
Cc1oc(-c2[nH]ncc2C(=O)N(C)C)cc1S(=O)(=O)Nc1ccccc1F	658
CCCS(=O)(=O)N1CC2(CCCCC2)CC1COCc1ccccc1 (stereo not given)	1260
Cn1c(=O)n(C)c2cc(CNc3ccc4c(c3)OCO4)ccc21	630
CC1CCCN(C(=O)c2ccc(CN3CCN(Cc4ccc(F)cc4)C(=O)C3=O)cc2)C1 (stereo not given)	788
COCCCNC(=O)c1nc(Nc2ccc(C)cc2)c2ccccc2n1	709

SMILES	RP-LC retention time [s]
CCn1c(=O)oc2cc(S(=O)(=O)N3CCC(CC(=O)N4c5ccccc5CC4C)CC3)ccc21 (stereo not given)	1010
Cn1cc(S(=O)(=O)N2CCC(C(=O)NCc3ccc(F)cc3)CC2)cc1C(=O)N1CCCC1	722
Cc1ccccc1CC(=O)N1CCCC(COc2cccc(C(=O)NC3CC3)c2)C1 (stereo not given)	861
CCNC(=O)C1CCCN(C(=O)Nc2ccc(NC(=O)Nc3ccccc3F)cc2)C1 (stereo not given)	689
COc1ccc(-c2cccc(NC(C)=O)c2)nn1	645
CCOc1ccccc1CN1C(=O)C2(CCOCC2)CC1c1nnnn1C(C)(C)C (stereo not given)	799
CC1CN(c2ccc(Cl)cc2)c2nc3c(c(=O)n(C)c(=O)n3C)n2C1 (stereo not given)	885
Cn1cc(C(=O)NCc2ccc(F)cc2F)c(S(=O)(=O)N2CCSCC2)n1	876
Cc1noc(CNC(=O)C2CCN(C(=O)Cn3c(=O)oc4ccccc43)CC2)n1	608
CC1Oc2ccccc2N(Cc2nc(-c3ccc(Cl)cc3)no2)C1=O (stereo not given)	1160
CCN1CCCn2nc(C3CCN(C(=O)COc4ccccc4)CC3)cc2C1=O	678
CCN(CC)S(=O)(=O)c1cccc(-c2nnc(-c3ccc(OC)c(OC)c3)o2)c1	950
Cc1cc2nn(CC(=O)Nc3ccc(F)c(F)c3)c(=O)n2c(Nc2ccccc2)n1	967
Cc1cc2ccccc2n2c(SCC(=O)NCC3CCCO3)nnc12 (stereo not given)	628
CCCc1cc(N2CCN(C(=O)C3CC3)CC2)nc2nncn12	586
Cc1ccc(-n2nc(N3CCCC(C(=O)NCc4ccc(N(C)C)cc4)C3)ccc2=O)cc1Cl (stereo not given)	692
CNC(=O)c1nc(C(C)(C)NC(=O)c2ccco2)nc2c1OCO2	623
Cc1nn2c(CNC(=O)c3ccoc3)c(-c3ccccc3)nc2s1	742
O=C(Cc1ccc(NC(=O)C2COc3ccccc3O2)cc1)NCC(F)(F)F (stereo not given)	576
CCc1nn2c(CNC(=O)c3ccc(C(C)C)cc3)c(-c3ccccc3)nc2s1	1080
CCN(CC)S(=O)(=O)c1cc(-c2nnc(-c3ccc(Br)cc3)o2)ccc1C	1230
COc1ccc(OC)c(CNC(=O)Cc2nnc(-c3ccc4ncccc4c3)o2)c1	688

From the METLIN SMRT retention time set (Domingo-Almenara et al. 2019)
